Experimental data from patent publication US20230149362A1, “NEW CAPSULE COMPOSITION FOR PERORAL ADMINISTRATION” (Vicore Pharma AB, priority 2020, published 2023).
Values after ≈ are worked out from the molar mass of the structure shown. Like-named read-outs stand apart in the source and are kept apart here.

Key:
[1] = Stability of aqueous solutions of C21 under four storage conditions (sensitivity to light); type: physicochemical; conditions: for Amount of Free C21, % of initial / Solution pH: 1 mg/mL in 0.9% NaCl
Description: The stability of free C21 in 0.9% NaCl pH 9.4 was investigated.
Solutions of 1 mg/mL of C21 were studied for four weeks under four different storage conditions. The solution was filtered through a 0.22 sterile syringe filter to minimize bacterial growth during the stability test. The samples were analysed by HPLC for purity.
The results are summarised in Table 3 below, in which the amount of C21 is given as a percentage of the initial amount of drug. Solution pHs were also measured and are shown within parenthesis in Table 3.
The stability of the sodium salt of C21 was also investigated under the same storage conditions.
At the time for analysis of the one week samples, it was noted that the heating cabinet for storage of samples at 40° C. was broken. In view of this, these samples were thereafter kept at room temperature for three days.

[2] = Solubility of free C21 in aqueous vehicles (saturated solutions, HPLC); type: physicochemical; conditions: for solubility at 48 h: thermodynamic from solid, read-out: Concentration (solubility)
Text: Vehicles (with sources) were as follows: sodium chloride (Sigma), ethanol (99.5%, Kemetyl), polyethylene glycols (BASF), phosphate buffered saline (PBS) pH 7.4 (Sigma), buffer solution pH 2.00 (citric acid, sodium hydroxide, hydrogen chloride), buffer solution pH 4.00 (citric acid, sodium hydroxide), buffer solution pH 6.00 (citric acid, sodium hydroxide), buffer solution pH 8.00 (boric acid, sodium hydroxide, hydrogen chloride) and buffer solution pH 10.00 (boric acid, sodium hydroxide, hydrogen chloride) (all Merck), and purified water (Elga Option 4 water purifier).
Saturated solutions of free C21 (obtained from Syntagon AB, Södertälje, Sweden) were prepared in duplicates. The samples were kept magnetically stirred for 48 hours prior to analysis. For some samples, the added substance was dissolved and more was thereafter added to obtain saturated solutions.
After 48 hours, pH was measured and thereafter 1 mL of solution was withdrawn. Undissolved substance was removed by centrifugation (1500 rpm, 30 minutes). The supernatant was diluted 10 to 500 times with acetonitrile/H2O, 30:70.
C21 content was measured by HPLC.

Structure (SMILES): CCCCOC(=O)NS(=O)(=O)c1sc(CC(C)C)cc1-c1ccc(Cn2ccnc2)cc1 [free C21, N-butyloxycarbonyl-3-(4-imidazol-1-ylmethylphenyl)-5-iso-butylthiophene-2-sulfonamide]
- Amount of Free C21, % of initial ([1]; 5° C., dark, 1 week): 101 % of initial
- Solution pH ([1]; 5° C., dark, 1 week): (9.2)
- Amount of Free C21, % of initial ([1]; 5° C., dark, 2 weeks): 107 % of initial
- Solution pH ([1]; 5° C., dark, 2 weeks): (9.2)
- Amount of Free C21, % of initial ([1]; 5° C., dark, 3 weeks): 108 % of initial
- Solution pH ([1]; 5° C., dark, 3 weeks): (9.1)
- Amount of Free C21, % of initial ([1]; 5° C., dark, 4 weeks): 108 % of initial
- Solution pH ([1]; 5° C., dark, 4 weeks): (9.2)
- Amount of Free C21, % of initial ([1]; 5° C., dark, Initial): 100 % of initial
- Solution pH ([1]; 5° C., dark, Initial): (9.4)
- Amount of Free C21, % of initial ([1]; 40° C., dark, 1 week): 101 % of initial
- Solution pH ([1]; 40° C., dark, 1 week): (9.0)
- Amount of Free C21, % of initial ([1]; 40° C., dark, 2 weeks): 111 % of initial
- Solution pH ([1]; 40° C., dark, 2 weeks): (8.6)
- Amount of Free C21, % of initial ([1]; 40° C., dark, 3 weeks): 106 % of initial
- Solution pH ([1]; 40° C., dark, 3 weeks): (8.7)
- Amount of Free C21, % of initial ([1]; 40° C., dark, 4 weeks): 107 % of initial
- Solution pH ([1]; 40° C., dark, 4 weeks): (8.7)
- Amount of Free C21, % of initial ([1]; 40° C., dark, Initial): 100 % of initial
- Solution pH ([1]; 40° C., dark, Initial): (9.4)
- Amount of Free C21, % of initial ([1]; RT, dark, 1 week): 97 % of initial
- Solution pH ([1]; RT, dark, 1 week): (9.2)
- Amount of Free C21, % of initial ([1]; RT, dark, 2 weeks): 109 % of initial
- Solution pH ([1]; RT, dark, 2 weeks): (8.9)
- Amount of Free C21, % of initial ([1]; RT, dark, 3 weeks): 105 % of initial
- Solution pH ([1]; RT, dark, 3 weeks): (9.0)
- Amount of Free C21, % of initial ([1]; RT, dark, 4 weeks): 106 % of initial
- Solution pH ([1]; RT, dark, 4 weeks): (8.9)
- Amount of Free C21, % of initial ([1]; RT, dark, Initial): 100 % of initial
- Solution pH ([1]; RT, dark, Initial): (9.4)
- Amount of Free C21, % of initial ([1]; RT, light, 1 week): 96 % of initial
- Solution pH ([1]; RT, light, 1 week): (9.0)
- Solution pH ([1]; RT, light, 2 weeks): (8.0)
- Amount of Free C21, % of initial ([1]; RT, light, 2 weeks, precipitation, filtered): 44 % of initial
- Amount of Free C21, % of initial ([1]; RT, light, 3 weeks): 96 % of initial
- Solution pH ([1]; RT, light, 3 weeks): (8.5)
- Solution pH ([1]; RT, light, 4 weeks): (7.7)
- Amount of Free C21, % of initial ([1]; RT, light, 4 weeks, precipitation, filtered): 13 % of initial
- Amount of Free C21, % of initial ([1]; RT, light, Initial): 100 % of initial
- Solution pH ([1]; RT, light, Initial): (9.4)
- total impurity peak area ([1]; samples stored at 5° C., RT/dark and 40° C.): around 2.5 area% of C21 peak area
- chemical stability in aqueous solution ([1]; stored in dark at 5° C., RT and 40° C., four weeks): chemically stable
- solubility at 48 h ([2]; 0.9% NaCl, pH 7.3, saline or isotonic, vehicle 0.9% NaCl, pH 7.3): 0.12 mg/mL (≈ 252 µM)
- solubility at 48 h ([2]; 0.9% NaCl, pH 8.3, saline or isotonic, vehicle 0.9% NaCl, pH 8.3 adjusted by NaOH, one sample): 1.58 mg/mL (≈ 3320 µM)
- solubility at 48 h ([2]; 0.9% NaCl, pH 9.7, saline or isotonic, vehicle 0.9% NaCl, pH 9.7 adjusted by NaOH): 27.4 mg/mL (≈ 57600 µM)
- solubility at 48 h ([2]; 0.9% NaCl/EtOH 95:5 v/v, pH 7.9, aqueous with cosolvent or surfactant or cyclodextrin, vehicle 0.9% NaCl/EtOH 95:5 v/v, pH 7.9, one sample): 0.57 mg/mL (≈ 1200 µM)
- solubility at 48 h ([2]; PBS pH 7.4, pH 7.7, aqueous buffer, vehicle Buffer/PBS pH 7.4, measured pH 7.7): 0.24 mg/mL (≈ 505 µM)
- solubility at 48 h ([2]; PEG/EtOH/H2O (40:10:50), pH 6.1, aqueous with cosolvent or surfactant or cyclodextrin, vehicle PEG/EtOH/H2O (40:10:50), pH 6.1): 0.83 mg/mL (≈ 1750 µM)
- solubility at 48 h ([2]; PEG/H2O (25:75), pH 5.5, aqueous with cosolvent or surfactant or cyclodextrin, vehicle PEG/H2O (25:75), pH 5.5): 0.17 mg/mL (≈ 357 µM)
- solubility at 48 h ([2]; PEG/H2O (50:50), pH 6.2, aqueous with cosolvent or surfactant or cyclodextrin, vehicle PEG/H2O (50:50), pH 6.2): 0.61 mg/mL (≈ 1280 µM)
- solubility at 48 h ([2]; PG/EtOH/H2O (40:10:50), pH 6.3, aqueous with cosolvent or surfactant or cyclodextrin, vehicle PG/EtOH/H2O (40:10:50), pH 6.3): 0.79 mg/mL (≈ 1660 µM)
- solubility at 48 h ([2]; PG/H2O (10:90), pH 7.5, aqueous with cosolvent or surfactant or cyclodextrin, vehicle PG/H2O (10:90), pH 7.5): 0.22 mg/mL (≈ 463 µM)
- solubility at 48 h ([2]; PG/H2O (25:75), pH 6.9, aqueous with cosolvent or surfactant or cyclodextrin, vehicle PG/H2O (25:75), pH 6.9): 0.3 mg/mL (≈ 631 µM)
- solubility at 48 h ([2]; boric acid buffer pH 8.0, pH 7.9, aqueous buffer, vehicle Buffer/Boric acid pH 8.0, measured pH 7.9): 0.5 mg/mL (≈ 1050 µM)
- solubility at 48 h ([2]; boric acid buffer pH 10.0, pH 8.7, aqueous buffer, vehicle Buffer/Boric acid pH 10.0, measured pH 8.7): 19.1 mg/mL (≈ 40200 µM)
- solubility at 48 h ([2]; citric acid buffer pH 2.0, pH 2.3, aqueous buffer, vehicle Buffer/Citric acid pH 2.0, measured pH 2.3): 3.95 mg/mL (≈ 8300 µM)
- solubility at 48 h ([2]; citric acid buffer pH 4.0, pH 4, aqueous buffer, vehicle Buffer/Citric acid pH 4.0, measured pH 4.0): 0.08 mg/mL (≈ 168 µM)
- solubility at 48 h ([2]; citric acid buffer pH 6.0, pH 6, aqueous buffer, vehicle Buffer/Citric acid pH 6.0, measured pH 6.0): 0.06 mg/mL (≈ 126 µM)
- Concentration (solubility) ([2]; vehicle Buffer/Boric acid pH 10.0, measured pH 8.7): 19.90 mg/mL
- solubility at 48 h ([2]; water, pH 7.3, water, vehicle H2O, pH 7.3, stirred 48 hours): 0.15 mg/mL (≈ 315 µM)
